From patent US12250947B2, “Substituted azaspiro-cycles as herbicides” (SYNGENTA CROP PROTECTION AG, priority 2019, dated 2025) come the findings set out here.

What all share (type): in vivo
Data set [1] relates to Avena fatua (AVEFA). The data set is described as follows: Herbicidal glasshouse test, pre-emergence, AVEFA. The conditions noted are these: 250 g/Ha, evaluated after 13 days. Here is the method: (§1) Seeds of a variety of test species are sown in standard soil in pots (Lolium perenne (LOLPE), Setaria faberi (SETFA), Alopecurus myosuroides (ALOMY), Echinochloa crus-galli (ECHCG), Avena fatua (AVEFA)). […] Compounds are applied at 250 g/h. The test plants are then grown in a glasshouse under controlled conditions in a glasshouse (at 24/16° C., day/night; 14 hours light; 65% humidity) and watered twice daily. After 13 days for pre and post-emergence, the test is evaluated for the percentage damage caused to the plant. […] NT=not tested.

Data set [2] has as its system Lolium perenne (LOLPE). The data set is described as follows: Herbicidal glasshouse test, post-emergence, LOLPE. The following applies: 250 g/Ha, evaluated after 13 days. The method, then:
as §1

The subject of data set [3] is Setaria faberi (SETFA). The data set is described as follows: Herbicidal glasshouse test, post-emergence, SETFA. The conditions noted are these: 250 g/Ha, evaluated after 13 days. Here is the method:
as §1

Data set [4] relates to Setaria faberi (SETFA). Briefly: Herbicidal glasshouse test, pre-emergence, SETFA. The following applies: 250 g/Ha, evaluated after 13 days. Here is the method:
as §1

The subject of data set [5] is Avena fatua (AVEFA). Briefly: Herbicidal glasshouse test, post-emergence, AVEFA. The following applies: 250 g/Ha, evaluated after 13 days. Here is the method: as §1
In data set [6] the test system is Echinochloa crus-galli (ECHCG). The data set is described as follows: Herbicidal glasshouse test, pre-emergence, ECHCG. The conditions noted are these: 250 g/Ha, evaluated after 13 days. The method, then:
as §1

For data set [7], the system named is Alopecurus myosuroides (ALOMY). Briefly: Herbicidal glasshouse test, pre-emergence, ALOMY. The following applies: 250 g/Ha, evaluated after 13 days. Here is the method:
as §1

In data set [8] the test system is Lolium perenne (LOLPE). Briefly: Herbicidal glasshouse test, pre-emergence, LOLPE. The conditions noted are these: 250 g/Ha, evaluated after 13 days. The method, then:
as §1

The subject of data set [9] is Echinochloa crus-galli (ECHCG). The data set is described as follows: Herbicidal glasshouse test, post-emergence, ECHCG. The following applies: 250 g/Ha, evaluated after 13 days. The method, then: as §1
Data set [10] has as its system Alopecurus myosuroides (ALOMY). The data set is described as follows: Herbicidal glasshouse test, post-emergence, ALOMY. The conditions noted are these: 250 g/Ha, evaluated after 13 days. Here is the method:
as §1

Data set [11] deals with wheat crop plants. Briefly: Crop phytotoxicity comparison, post-emergence, wheat. The following applies: wheat and barley crops, summary of Table B3. Here is the method: Seeds of a variety of test species are sown in standard soil in pots (Lolium perenne (LOLPE), Setaria faberi (SETFA), Alopecurus myosuroides (ALOMY), Echinochloa crus-galli (ECHCG), Avena fatua (AVEFA)). After cultivation for one day (pre-emergence) or after 8 days cultivation (post-emergence) under controlled conditions in a glasshouse (at 24/16° C., day/night; 14 hours light; 65% humidity), the plants are sprayed with an aqueous spray solution derived from the formulation of the technical active ingredient in acetone/water (50:50) solution containing 0.5% Tween 20 (polyoxyethelyene sorbitan monolaurate, CAS RN 9005-64-5). Compounds are applied at 250 g/h. The test plants are then grown in a glasshouse under controlled conditions in a glasshouse (at 24/16° C., day/night; 14 hours light; 65% humidity) and watered twice daily. After 13 days for pre and post-emergence, the test is evaluated for the percentage damage caused to the plant. The biological activities are shown in the following table on a five-point scale (5=80-100%; 4=60-79%; 3=40-59%; 2=20-39%; 1=0-19%). NT=not tested.
Using procedures outlines above, wheat and barley crop plants are treated, post-emergence with compounds A1 or A4 of the present invention or comparator compound C1 (Compound A-38 from WO2014/096289) at the application rates indicated. The compounds were also applied in conjunction with the safener compound cloquintocet-mexyl (CQC) at 50 g/ha.

Molecules are shown by their SMILES.

Consider `CC#Cc1cc(C)c(C2C(=O)CC3(CCN(C(=O)C(=O)OCC)CC3)CC2=O)c(C)c1` [Compound A2], for which the figures for the “percentage damage caused to the plant, five-point scale, AVEFA” value (shortened to “percentage damage caused … AVEFA”) in [1] and in data set [5] were 1 (1=0-19%) and 4 (4=60-79%), respectively. Also, the “percentage damage caused to the plant, five-point scale, LOLPE” value (“percentage damage caused … LOLPE” below) in data set [2] is listed as 5 (5=80-100%); in data set [8], 3 (3=40-59%). The “percentage damage caused to the plant, five-point scale, SETFA” value (from here on “percentage damage caused … SETFA”) in data set [3] and in data set [4] was 5 (5=80-100%) in each case. Also, the “percentage damage caused to the plant, five-point scale, ECHCG” value (shortened to “percentage damage caused … ECHCG”) in data set [6] is recorded as 4 (4=60-79%); in data set [9], 5 (5=80-100%). In addition, the “percentage damage caused to the plant, five-point scale, ALOMY” value (“percentage damage caused … ALOMY” below) in data set [7] is 0; in data set [10], 4 (4=60-79%).

`CC#Cc1cc(C)c(C2C(=O)CC3(CCN(C(=O)C(=O)C(F)(F)F)CC3)CC2=O)c(C)c1` [Compound A3]: the “percentage damage caused … AVEFA” value in data set [1] is reported as 4 (4=60-79%); in [5], 5 (5=80-100%). For the same compound, the “percentage damage caused … LOLPE” value in data set [2] and in data set [8] was 5 (5=80-100%) each time. Besides, the “percentage damage caused … SETFA” value in [3] and in data set [4] was 5 (5=80-100%) throughout. The “percentage damage caused … ECHCG” value in [6] and in [9] was 5 (5=80-100%) each time. In addition, the “percentage damage caused … ALOMY” value in data set [7] and in data set [10] was 5 (5=80-100%) each time. Further, the “damage to the wheat and barley crops compared to prior art compound C1” value in data set [11] is on record as “significantly less damaging”.

In the case of `CC#Cc1cc(C)c(C2C(=O)CC3(CCN(C(=O)C(N)=O)CC3)CC2=O)c(C)c1` [Compound A8], the “percentage damage caused … AVEFA” value in data set [1] and in data set [5] was 5 (5=80-100%) in each case. Further, the “percentage damage caused … LOLPE” value in data set [2] and in data set [8] was 5 (5=80-100%) in each case. Moreover, the “percentage damage caused … SETFA” value in data set [3] and in [4] was 5 (5=80-100%) in each case. In addition, the “percentage damage caused … ECHCG” value in data set [6] and in [9] was 5 (5=80-100%) each time. The “percentage damage caused … ALOMY” value in data set [7] and in data set [10] was 5 (5=80-100%) each time.

With `CC#Cc1cc(C)c(C2C(=O)CC3(CCN(C(=O)C(=O)Nc4ccccn4)CC3)CC2=O)c(C)c1` [Compound A6], the “percentage damage caused … AVEFA” value is on record as 4 (4=60-79%) in [1] and 5 (5=80-100%) in data set [5]. For the same compound, the “percentage damage caused … LOLPE” value in data set [2] is recorded as 5 (5=80-100%); in data set [8] it was 4 (4=60-79%). Besides, the “percentage damage caused … SETFA” value in [3] and in data set [4] was 5 (5=80-100%) in each case. For the same compound, the “percentage damage caused … ECHCG” value in data set [6] and in [9] was 5 (5=80-100%) each time. Moreover, the “percentage damage caused … ALOMY” value in data set [7] was 2 (2=20-39%); in data set [10], 5 (5=80-100%).

Consider `CC#Cc1cc(C)c(C2C(=O)CC3(CCN(C(=O)C(=O)C(C)(C)C)CC3)CC2=O)c(C)c1` [Compound A7], for which the results for the “percentage damage caused … AVEFA” value in data set [1] and in data set [5] were 3 (3=40-59%) and 5 (5=80-100%), respectively. Also, the “percentage damage caused … LOLPE” value in data set [2] and in data set [8] was 5 (5=80-100%) in each case. Moreover, the “percentage damage caused … SETFA” value in data set [3] and in data set [4] was 5 (5=80-100%) each time. Besides, the “percentage damage caused … ECHCG” value in data set [6] and in data set [9] was 5 (5=80-100%) in each case. Moreover, the “percentage damage caused … ALOMY” value in data set [7] is 3 (3=40-59%); in data set [10], 5 (5=80-100%).

Consider `CC#Cc1cc(C)c(C2C(=O)CC3(CCN(C(=O)C(=O)NC(C)(C)C)CC3)CC2=O)c(C)c1` [Compound A9, N-tert-butyl-2-[9-(2,6-dimethyl-4-prop-1-ynyl-phenyl)-8,10-dioxo-3-azaspiro[5.5]undecan-3-yl]-2-oxo-acetamide], for which the “percentage damage caused … AVEFA” value in data set [1] and in data set [5] was 5 (5=80-100%) throughout. The “percentage damage caused … LOLPE” value in data set [2] and in data set [8] was 5 (5=80-100%) in each case. Besides, the “percentage damage caused … SETFA” value in [3] and in [4] was 5 (5=80-100%) throughout. The “percentage damage caused … ECHCG” value in [6] and in [9] was 5 (5=80-100%) in each case. Also, the entries for the “percentage damage caused … ALOMY” value in data set [7] and in [10] were 5 (5=80-100%) and 4 (4=60-79%), respectively.

Take `CC#Cc1cc(C)c(C2C(=O)CC3(CCN(C(=O)C(=O)N(C)C)CC3)CC2=O)c(C)c1` [Compound A5]: the figures for the “percentage damage caused … AVEFA” value in data set [1] and in data set [5] were 4 (4=60-79%) and 5 (5=80-100%), respectively. The “percentage damage caused … LOLPE” value in data set [2] and in [8] was 5 (5=80-100%) throughout. For the same compound, the “percentage damage caused … SETFA” value in data set [3] and in data set [4] was 5 (5=80-100%) in each case. For the same compound, the “percentage damage caused … ECHCG” value in [6] and in [9] was 5 (5=80-100%) in each case. Further, the “percentage damage caused … ALOMY” value in data set [7] and in [10] was 5 (5=80-100%) each time.

Turning to `CC#Cc1cc(C)c(C2C(=O)CC3(CCN(C(=O)C(=O)NC)CC3)CC2=O)c(C)c1` [Compound A4, 2-[9-(2,6-dimethyl-4-prop-1-ynyl-phenyl)-8,10-dioxo-3-azaspiro[5.5]undecan-3-yl]-N-methyl-2-oxo-acetamide], the “percentage damage caused … AVEFA” value in data set [1] and in [5] was 5 (5=80-100%) in each case. For the same compound, the “percentage damage caused … LOLPE” value in data set [2] and in data set [8] was 5 (5=80-100%) in each case. For the same compound, the “percentage damage caused … SETFA” value in [3] and in data set [4] was 5 (5=80-100%) in each case. The “percentage damage caused … ECHCG” value in data set [6] and in [9] was 5 (5=80-100%) each time. Besides, the “percentage damage caused … ALOMY” value in [7] is recorded as 4 (4=60-79%); in [10] it was 5 (5=80-100%).

With `CC#Cc1cc(C)c(C2=C(OC(=O)OC)CC3(CCN(C(=O)C(C)=O)CC3)CC2=O)c(C)c1` [Compound P1, [9-(2,6-dimethyl-4-prop-1-ynyl-phenyl)-10-oxo-3-(2-oxopropanoyl)-3-azaspiro[5.5]undec-8-en-8-yl] methyl carbonate], the “percentage damage caused … AVEFA” value in data set [1] and in data set [5] was 5 (5=80-100%) each time. Also, the “percentage damage caused … LOLPE” value in data set [2] and in data set [8] was 5 (5=80-100%) throughout. Also, the “percentage damage caused … SETFA” value in [3] and in [4] was 5 (5=80-100%) throughout. For the same compound, the “percentage damage caused … ECHCG” value in data set [6] and in [9] was 5 (5=80-100%) throughout. Besides, the “percentage damage caused … ALOMY” value in [7] and in data set [10] was 5 (5=80-100%) in each case.
